According to ChEMBL document CHEMBL1126451, “Characterization of LY806303 as a potent and selective inhibitor of thrombin” (Bioorg Med Chem Lett, 1992):
Non-standard residues stand in square brackets, D forms with d. Residues, ends and D or L forms follow the SMILES beside them. dNMePhg = CN[C@@H](C(=O)O)c1ccccc1; NMePhg = CN[C@H](C(=O)O)c1ccccc1

What was measured:
[1] = target: T1, Serine protease 1 (Bos taurus, UniProt P00760); assay: In vitro concentration of compound required to inhibit 50% of trypsin
T1 sequence (P00760 whole entry): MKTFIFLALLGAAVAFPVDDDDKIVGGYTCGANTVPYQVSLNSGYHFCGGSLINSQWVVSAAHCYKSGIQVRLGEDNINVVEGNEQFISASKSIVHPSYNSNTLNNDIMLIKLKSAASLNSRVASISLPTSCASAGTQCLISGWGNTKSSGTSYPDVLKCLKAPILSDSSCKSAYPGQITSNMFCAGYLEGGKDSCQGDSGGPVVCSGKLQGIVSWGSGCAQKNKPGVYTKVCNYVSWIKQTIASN

[2] = In vitro concentration of compound required to inhibit 50% of nt-PA; set-up: species or system Homo sapiens
[3] = target: T2, Plasma kallikrein (Homo sapiens, UniProt P03952); assay: In vitro concentration of compound required to inhibit 50% of Kallikrein
T2 sequence (P03952 20-390 limits assumed): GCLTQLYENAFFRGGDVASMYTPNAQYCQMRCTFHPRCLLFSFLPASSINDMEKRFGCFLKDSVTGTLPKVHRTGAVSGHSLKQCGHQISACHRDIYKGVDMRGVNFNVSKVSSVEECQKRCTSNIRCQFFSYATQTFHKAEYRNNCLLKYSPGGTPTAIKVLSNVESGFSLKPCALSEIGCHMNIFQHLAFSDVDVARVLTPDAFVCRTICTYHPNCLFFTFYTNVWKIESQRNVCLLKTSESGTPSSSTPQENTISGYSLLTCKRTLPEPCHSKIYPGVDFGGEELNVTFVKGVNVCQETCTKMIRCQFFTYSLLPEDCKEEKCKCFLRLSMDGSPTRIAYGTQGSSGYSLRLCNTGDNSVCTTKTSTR
T2 sequence (P03952 391-638 limits assumed): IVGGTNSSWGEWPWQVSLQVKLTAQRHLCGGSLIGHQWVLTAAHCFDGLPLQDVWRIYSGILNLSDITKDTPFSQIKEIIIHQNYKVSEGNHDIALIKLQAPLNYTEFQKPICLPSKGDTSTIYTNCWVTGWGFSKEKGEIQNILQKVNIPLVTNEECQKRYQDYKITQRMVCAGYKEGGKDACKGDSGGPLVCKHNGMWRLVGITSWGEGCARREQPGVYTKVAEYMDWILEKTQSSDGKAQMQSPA

[4] = target: T3, Plasminogen (Homo sapiens, UniProt P00747); assay: In vitro concentration of compound required to inhibit 50% of Plasmin
T3 sequence (P00747 97-580 limits assumed): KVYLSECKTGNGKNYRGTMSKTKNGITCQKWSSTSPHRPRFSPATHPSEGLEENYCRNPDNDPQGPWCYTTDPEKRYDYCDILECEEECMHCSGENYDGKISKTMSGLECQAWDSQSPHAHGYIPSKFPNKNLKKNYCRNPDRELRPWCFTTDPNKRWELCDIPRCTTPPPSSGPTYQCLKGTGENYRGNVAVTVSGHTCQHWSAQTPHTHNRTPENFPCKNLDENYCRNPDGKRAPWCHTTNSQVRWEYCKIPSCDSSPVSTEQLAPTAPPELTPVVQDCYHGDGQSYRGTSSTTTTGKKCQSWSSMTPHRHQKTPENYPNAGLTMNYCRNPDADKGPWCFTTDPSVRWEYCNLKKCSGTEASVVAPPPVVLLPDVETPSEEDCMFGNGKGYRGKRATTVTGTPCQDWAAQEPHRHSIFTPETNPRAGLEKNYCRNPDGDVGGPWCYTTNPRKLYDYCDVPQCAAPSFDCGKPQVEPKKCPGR
T3 sequence (P00747 581-810 limits assumed): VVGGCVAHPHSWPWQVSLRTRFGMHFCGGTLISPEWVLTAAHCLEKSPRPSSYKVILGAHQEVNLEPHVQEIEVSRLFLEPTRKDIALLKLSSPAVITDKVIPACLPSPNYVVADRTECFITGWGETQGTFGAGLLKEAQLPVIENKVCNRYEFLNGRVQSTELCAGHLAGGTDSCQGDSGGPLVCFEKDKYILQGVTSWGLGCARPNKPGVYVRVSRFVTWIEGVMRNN

[5] = target: T4, Coagulation factor X (Bos taurus, UniProt P00743); assay: In vitro concentration of compound required to inhibit 50% of Factor Xa
T4 sequence (P00743 41-180 limits assumed): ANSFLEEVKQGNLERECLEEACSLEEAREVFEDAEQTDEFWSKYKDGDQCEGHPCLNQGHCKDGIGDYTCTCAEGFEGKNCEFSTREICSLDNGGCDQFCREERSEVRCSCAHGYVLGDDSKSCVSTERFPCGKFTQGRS
T4 sequence (P00743 234-492 limits assumed): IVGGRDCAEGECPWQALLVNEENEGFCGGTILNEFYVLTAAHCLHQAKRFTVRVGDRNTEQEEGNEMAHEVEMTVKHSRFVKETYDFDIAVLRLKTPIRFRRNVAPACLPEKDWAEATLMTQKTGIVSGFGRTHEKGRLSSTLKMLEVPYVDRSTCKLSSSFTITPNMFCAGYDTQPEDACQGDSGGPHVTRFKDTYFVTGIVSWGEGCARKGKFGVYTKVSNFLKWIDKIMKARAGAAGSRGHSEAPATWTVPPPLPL

[6] = target: Prothrombin (Bos taurus, UniProt P00735)
Description: In vitro concentration of compound required to inhibit 50% of 6 nM thrombin

[7] = target: T2, Plasma kallikrein; assay: In vitro concentration of compound required to inhibit 50% of kallikrein
[8] = target: T3, Plasminogen; assay: In vitro concentration of compound required to inhibit 50% of plasmin
[9] = target: T4, Coagulation factor X; assay: In vitro concentration of compound required to inhibit 50% of factor Xa

In the case of `COC(=O)c1oc2c(sc3ccccc32)c1OC(=O)C(C)C`, the IC50 [1] is reported as 29 µM, the IC50 [2] is reported as 160 µM and the IC50 [3] is reported as 7.2 µM. It also gave an IC50 [4] of 240 µM and an IC50 [5] of 0.1 µM.
For `COC(=O)c1oc2c(sc3ccccc32)c1OC(=O)N(C)C`, the IC50 [6] was > 10 µM.
With `COC(=O)c1oc2c(sc3ccccc32)c1O` the IC50 [6] was > 10 µM.
In the case of `COC(=O)c1oc2c(sc3ccccc32)c1OC`, the IC50 [6] is reported as > 10 µM.
`CN[C@H](C(=O)N1CCC[C@H]1C(=O)N[C@@H](CCCNC(=N)N)C(=O)O)c1ccccc1` (H-[NMePhg]-Pro-Arg-OH) gave an IC50 [6] of 0.02 µM.
In the case of `CN[C@@H](C(=O)N1CCC[C@H]1C(=O)N[C@H](C=O)CCCNC(=N)N)c1ccccc1` (H-[dNMePhg]-Pro-Arg-aldehyde), the IC50 [7] is reported as 12 µM, the IC50 [1] is reported as 0.02 µM and the IC50 [2] is reported as 43 µM. For the same molecule, the IC50 [8] was 0.5 µM and the IC50 [9] was 2.2 µM.
